Measured values reported in patent publication US12582613B2, “Biomimetic, reactive oxygen species-detonable nanoclusters for antirestenotic therapy” (University of Virginia Patent Foundation, priority 2021, dated 2026).

How the values were obtained:
[1] = tested on: balloon-injured carotid arteries; experiment: Morphometric analysis of IH and restenosis in rat carotid artery balloon angioplasty model; conditions: in vivo
Experimental: Rat Carotid Artery Balloon Angioplasty Model. All animal experiments conform to the protocols approved by the Animal Care and Use Committee (ACUC) of the University of Virginia. All adult male Sprague-Dawley rats (Charles River, weighing 300-350 g) were maintained in a temperature and humidity-controlled SPF level animal facility under a 12 h light-dark cycle. Food and water were available ad libitum. Animals were randomly assigned to each treatment group. The carotid artery balloon injury model was operated as previously described. In brief, after anesthesia with isoflurane (5% for inducing and 2% for maintaining), a mid-line incision in the neck was made, and the carotid arteries and carotid bifurcation were exposed by blunt dissection. The proximal of left carotid artery, inner carotid artery, and external carotid artery were then temporarily ligated with 5-0 nylon suture to avoid excessive blood loss during the surgery. A 1 mm arteriotomy was created on the distal segment of the external carotid arteries. […] Area inside external elastic lamina (EEL area), area inside internal elastic lamina (IEL area), lumen area, intima area (=IEL area—lumen area), and media area (=EEL area—IEL area) were calculated using Image J. Intimal hyperplasia was defined as the ratio of intima area versus media area (Intima-to-media ratio, I/M ratio).

[2] = in vivo; cited from earlier work
PDGF-BB-stimulated VSMC = experiment: PDGF-BB-induced VSMC proliferation assay (CellTiter-Glo); assay type: cell-based, Human; conditions: 1 μM RVX equivalent
Experimental: Cell Culture. Human aortic VSMC and culture media (SmBm-2 basal medium for experimental purposes, and SmGm-2 complete medium for expansion) were purchased from Lonza (Walkersville, MD). Cells between passages 5 and 7 were maintained at 37° C. with 5% CO2 and used for all experiments. As established in previous studies, Accutase (ThermoFisher Scientific, Waltham, MA) instead of Trypsin was used for cell detachment to ensure fast cell adhesion and optimal cell status.
Cell Viability Assay of the Nanoclusters. The cytotoxicity and anti-proliferation of the nanoclusters on VSMC was evaluated by a CellTiter-Glo Luminescent Cell Viability kit according to manufacturer's instructions. VSMC were cultured in 96-well plates ([…] and 8×10^4 cells/well for experiments of proliferation and cytotoxicity, respectively) and grown for overnight. For cytotoxicity study, fresh basal medium (supplemented with 0.5% fetal bovine serum) containing NC with different concentrations were added into the plates. For proliferation study, VSMC were treated with 20 nM PDGF-BB to stimulate ROS and proliferation. […] Following 10 min incubation at room temperature, the 96-well plates were analyzed in a FlexStation 3 Benchtop Multi-Mode Microplate Reader (Molecular Devices, San Jose, California) (250-ms integration).

In the case of `COc1cc(OC)c2c(=O)[nH]c(-c3cc(C)c(OCCO)c(C)c3)nc2c1` [RVX], the “intimal hyperplasia, intima-to-media (I/M) ratio” value [1] is listed as “neither free RVX solution nor that delivered through conventional PLGA NP led to any significant changes”, the half-life [2] is listed as 1.5 h and the “effect on VSMC proliferation” value (PDGF-BB-stimulated VSMC) is listed as “failed to exert any notable effect”.
